{"source": "patent US8952157B2", "about": "“Apoptosis-inducing agents for the treatment of cancer and immune and autoimmune diseases” (AbbVie Inc., priority 2008, dated 2015)", "note": "pKi: −log10 of the molar value."}
{"biological_target": "GST-Bcl-2 (Homo sapiens (Human), UniProt P10415)", "sequence (P10415 whole entry)": "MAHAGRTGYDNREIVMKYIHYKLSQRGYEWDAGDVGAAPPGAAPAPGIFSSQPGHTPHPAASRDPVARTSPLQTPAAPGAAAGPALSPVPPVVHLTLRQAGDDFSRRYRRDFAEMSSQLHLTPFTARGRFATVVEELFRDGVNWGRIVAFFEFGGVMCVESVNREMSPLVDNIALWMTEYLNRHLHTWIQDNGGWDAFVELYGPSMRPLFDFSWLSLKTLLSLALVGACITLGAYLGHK", "assay": "Time Resolved-Fluorescence Resonance Energy Transfer (TR-FRET) Bcl-2 binding assay", "conditions": "not given", "how_it_was_run": "(§1)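 Ki values derived from TR-FRET displacement of F-Bak peptide from GST-Bcl-2, detected with Tb-labelled anti-GST antibody (ex 340, em 520/495 nm). Compound dilution series started at 50 μM (2× starting concentration); room-temperature incubation 3 hours.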"}
{"molecule": "CC1(C)CC(c2ccc(Cl)cc2)=C(CN2CCN(c3ccc(C(=O)NS(=O)(=O)c4ccc(N[C@H]5CC[C@H](N6CCOCC6)CC5)c([N+](=O)[O-])c4)c(Oc4cc5cc[nH]c5cc4Cl)c3)CC2)CO1", "note": "[Example 294, Trans-2-[(6-chloro-1H-indol-5-yl)oxy]-4-(4-{[4-(4-chlorophenyl)-6,6-dimethyl-5,6-dihydro-2H-pyran-3-yl]methyl}piperazin-1-yl)-N-({4-[(4-morpholin-4-ylcyclohexyl)amino]-3-nitrophenyl}sulfonyl)benzamide]", "pKi": 9.90}
{"molecule": "O=C(NS(=O)(=O)c1ccc(N[C@H]2CC[C@H](N3CCOCC3)CC2)c([N+](=O)[O-])c1)c1ccc(N2CCN(CC3=C(c4ccc(Cl)cc4)CCOCC3)CC2)cc1Oc1cc2cc[nH]c2cc1Cl", "note": "[Example 315, Trans-2-[(6-chloro-1H-indol-5-yl)oxy]-4-(4-{[5-(4-chlorophenyl)-2,3,6,7-tetrahydrooxepin-4-yl]methyl}piperazin-1-yl)-N-({4-[(4-morpholin-4-ylcyclohexyl)amino]-3-nitrophenyl}sulfonyl)benzamide]", "pKi": 8.34}
{"biological_target": "GST-Bcl-2 (Homo sapiens (Human), UniProt P10415)", "assay": "Time Resolved-Fluorescence Resonance Energy Transfer (TR-FRET) Bcl-2 binding assay", "conditions": "GST-Bcl-2 1 nM, F-Bak peptide probe 100 nM, Tb-anti-GST antibody 1 nM; Ki by Wang's equation", "how_it_was_run": "as §1"}
{"molecule": "CN1CCN(Nc2ccc(S(=O)(=O)NC(=O)c3ccc(N4CCN(CC5=C(c6ccc(Cl)cc6)CC(C)(C)OC5)CC4)cc3Oc3cccc(F)c3F)cc2[N+](=O)[O-])CC1", "note": "[Example 186, 4-(4-{[4-(4-chlorophenyl)-6,6-dimethyl-5,6-dihydro-2H-pyran-3-yl]methyl}piperazin-1-yl)-2-(2,3-difluorophenoxy)-N-({4-[(4-methylpiperazin-1-yl)amino]-3-nitrophenyl}sulfonyl)benzamide]", "pKi": 10.46}
{"molecule": "CN1CCC(Nc2ccc(S(=O)(=O)NC(=O)c3ccc(N4CCN(CC5=C(c6ccc(Cl)cc6)CCCC5)CC4)cc3Oc3ccccc3Cl)cc2[N+](=O)[O-])CC1", "note": "[Example 43, 2-(2-chlorophenoxy)-4-(4-((2-(4-chlorophenyl)cyclohex-1-en-1-yl)methyl)piperazin-1-yl)-N-((4-((1-methylpiperidin-4-yl)amino)-3-nitrophenyl)sulfonyl)benzamide]", "pKi": 10.47}
{"molecule": "O=C(NS(=O)(=O)c1ccc(NCCCN2CCOCC2)c([N+](=O)[O-])c1)c1ccc(N2CCN(Cc3ccccc3-c3ccc(Cl)cc3)CC2)cc1Oc1ccc(OCc2ccccc2)cc1", "note": "[Example 96, 2-(4-(benzyloxy)phenoxy)-4-(4-((4′-chloro-1,1′-biphenyl-2-yl)methyl)piperazin-1-yl)-N-((4-((3-morpholin-4-ylpropyl)amino)-3-nitrophenyl)sulfonyl)benzamide]", "pKi": "< 5.92"}
{"molecule": "CC1(C)CCC(CN2CCN(c3ccc(C(=O)NS(=O)(=O)c4ccc(NCC5CCOCC5)c([N+](=O)[O-])c4)c(Oc4ccc(O)nc4)c3)CC2)=C(c2ccc(Cl)cc2)C1", "note": "[Example 283, 4-(4-{[2-(4-chlorophenyl)-4,4-dimethylcyclohex-1-en-1-yl]methyl}piperazin-1-yl)-2-[(6-hydroxypyridin-3-yl)oxy]-N-({3-nitro-4-[(tetrahydro-2H-pyran-4-ylmethyl)amino]phenyl}sulfonyl)benzamide]", "pKi": 7.76}
{"molecule": "CC1(C)CCC(CN2CCN(c3ccc(C(=O)NS(=O)(=O)c4ccc(NC5CCN(C6CCOCC6)CC5)c([N+](=O)[O-])c4)c(Oc4ccc5[nH]cc(Cl)c5c4)c3)CC2)=C(c2ccc(Cl)cc2)C1", "note": "[Example 281, 2-[(3-chloro-1H-indol-5-yl)oxy]-4-(4-{[2-(4-chlorophenyl)-4,4-dimethylcyclohex-1-en-1-yl]methyl}piperazin-1-yl)-N-({3-nitro-4-[(1-tetrahydro-2H-pyran-4-ylpiperidin-4-yl)amino]phenyl}sulfonyl)benzamide]", "pKi": 9.95}
{"molecule": "CC1(C)CC(c2ccc(Cl)cc2)=C(CN2CCN(c3ccc(C(=O)NS(=O)(=O)c4cnc(OCC5CCC(F)(F)CC5)c(Cl)c4)c(Oc4cc5cc[nH]c5cc4F)c3)CC2)CO1", "note": "[Example 410, N-({5-chloro-6-[(4,4-difluorocyclohexyl)methoxy]pyridin-3-yl}sulfonyl)-4-(4-{[4-(4-chlorophenyl)-6,6-dimethyl-5,6-dihydro-2H-pyran-3-yl]methyl}piperazin-1-yl)-2-[(6-fluoro-1H-indol-5-yl)oxy]benzamide]", "pKi": "> 11.00"}
{"molecule": "Cc1n[nH]c2cccc(Oc3cc(N4CCN(CC5=C(c6ccc(Cl)cc6)CC(C)(C)CC5)CC4)ccc3C(=O)NS(=O)(=O)c3ccc(NCCCN4CCOCC4)c([N+](=O)[O-])c3)c12", "note": "[Example 44, 4-(4-((2-(4-chlorophenyl)-4,4-dimethylcyclohex-1-en-1-yl)methyl)piperazin-1-yl)-2-((3-methyl-1H-indazol-4-yl)oxy)-N-((4-((3-morpholin-4-ylpropyl)amino)-3-nitrophenyl)sulfonyl)benzamide]", "pKi": 10.44}
{"molecule": "CC1(C)CCC(CN2CCN(c3ccc(C(=O)NS(=O)(=O)c4ccc(OCC5(F)CCOCC5)c(Cl)c4)c(Oc4cnc(N)c(Cl)c4)c3)CC2)=C(c2ccc(Cl)cc2)C1", "note": "[Example 404, 2-[(6-amino-5-chloropyridin-3-yl)oxy]-N-({3-chloro-4-[(4-fluorotetrahydro-2H-pyran-4-yl)methoxy]phenyl}sulfonyl)-4-(4-{[2-(4-chlorophenyl)-4,4-dimethylcyclohex-1-en-1-yl]methyl}piperazin-1-yl)benzamide]", "pKi": 10.16}
{"molecule": "CC(c1ccccc1-c1ccc(Cl)cc1)N1CCN(c2ccc(C(=O)NS(=O)(=O)c3ccc(NCC4CCOCC4)c([N+](=O)[O-])c3)c(Oc3ccccc3Cl)c2)CC1", "note": "(centres unmarked) [Example 110, 4-{4-[1-(4′-chloro-1,1′-biphenyl-2-yl)ethyl]piperazin-1-yl}-2-(2-chlorophenoxy)-N-({3-nitro-4-[(tetrahydro-2H-pyran-4-ylmethyl)amino]phenyl}sulfonyl)benzamide]", "pKi": 10.41}
{"molecule": "CC1(C)CCC(CN2CCN(c3ccc(C(=O)NS(=O)(=O)c4cnc(OCC5(F)CCN(C(CF)CF)CC5)c(C(F)(F)F)c4)c(Oc4cnc(N)c(Cl)c4)c3)CC2)=C(c2ccc(Cl)cc2)C1", "note": "[Example 405, 2-[(6-amino-5-chloropyridin-3-yl)oxy]-4-(4-{[2-(4-chlorophenyl)-4,4-dimethylcyclohex-1-en-1-yl]methyl}piperazin-1-yl)-N-{[6-({4-fluoro-1-[2-fluoro-1-(fluoromethyl)ethyl]piperidin-4-yl}methoxy)-5-(trifluoromethyl)pyridin-3-yl]sulfonyl}benzamide]", "pKi": 9.45}
{"molecule": "COc1cccc(Oc2cc(N3CCN(Cc4ccccc4-c4ccc(Cl)cc4)CC3)ccc2C(=O)NS(=O)(=O)c2ccc(NCC3CCOCC3)c([N+](=O)[O-])c2)c1", "note": "[Example 20, 4-(4-((4′-chloro-1,1′-biphenyl-2-yl)methyl)piperazin-1-yl)-2-(3-methoxyphenoxy)-N-((3-nitro-4-((tetrahydro-2H-pyran-4-ylmethyl)amino)phenyl)sulfonyl)benzamide]", "pKi": 8.40}
{"molecule": "CN1CCC(Nc2ccc(S(=O)(=O)NC(=O)c3ccc(N4CCN(CC5=C(c6ccc(Cl)cc6)CC(C)(C)CC5)CC4)cc3Oc3cccc(Cl)c3F)cc2[N+](=O)[O-])CC1", "note": "[Example 147, 2-(3-chloro-2-fluorophenoxy)-4-(4-{[2-(4-chlorophenyl)-4,4-dimethylcyclohex-1-en-1-yl]methyl}piperazin-1-yl)-N-({4-[(1-methylpiperidin-4-yl)amino]-3-nitrophenyl}sulfonyl)benzamide]", "pKi": 9.90}
